Patent US20260092114A1, “TREATMENT OF LUNG CANCER USING A COMBINATION OF AN ANTI-PD-1 ANTIBODY AND ANOTHER ANTI-CANCER AGENT” (Bristol-Myers Squibb Company, priority 2016, published 2026)
Read-outs that look alike come from different tables or passages of the source.

How the values were obtained:
[1] = test system: NSCLC; settings: cited from earlier work; for median OS with maintenance therapy: non-squamous NSCLC patients, maintenance after platinum doublet
[2] = test system: metastatic squamous cell NSCLC; settings: cited from earlier work
[3] = CA184022 study of ipilimumab; format: in vivo, human
Description: Similarly, ipilimumab at 10 mg/kg has been safely administered over a 90 minute duration. In the CA184022 study, where ipilimumab was administered up to a dose of 10 mg/kg, on-study drug related hypersensitivity events (Grade 1-2) were reported in 1 (1.4%) subject in the 0.3 mg/kg and in 2 (2.8%) subjects in the 10 mg/kg group. […] Ipilimumab 10 mg/kg monotherapy has also been safely administered as 90 minute infusion in large phase 3 studies in prostate cancer (CA184043) and as adjuvant therapy for stage 3 melanoma (CA184029), with infusion reactions occurring in subjects. Administering 1 mg/kg of ipilimumab represents one-tenth of the 10 mg/kg dose.

[4] = test system: previously treated NSCLC; settings: cited from earlier work
[5] = test system: chemotherapy-naive advanced NSCLC; assay: CA209012 Phase 1 study, nivolumab monotherapy and nivolumab plus ipilimumab, first line; format: in vivo, human
Description: Nivolumab monotherapy at 3 mg/kg every 2 weeks has been evaluated in one of several cohorts of chemotherapy-naive patients with advanced NSCLC in study CA209012. Results from this cohort (n=52), including 13 subjects with squamous histology and 39 subjects with non-squamous histology, show an overall response rate (ORR) of 23% and a disease control rate (DCR) of 50%. The PFS rate at 24 weeks is 41%, with a median PFS of 16 weeks. The OS rate at 12 months is 74%, and the median overall survival (OS) is 22.6 months. The majority of responses have been durable, with the median duration of response not reached. In contrast, the median OS for patients with non-squamous histology who receive platinum doublet chemotherapy is 13 months, and for those with squamous histology is 10 months. (Ellis et al. J Clin Oncol (2014) 32:1277-1280.)
The nivolumab plus ipilimumab combination has been also evaluated at several different doses and schedules as first line therapy in patients with advanced NSCLC in CA209012, an ongoing Phase 1 study of nivolumab as monotherapy and in combination with a variety of agents. Early cohorts evaluated 2 different dosing schedules: nivolumab 1 mg/kg+ipilimumab 3 mg/kg, every 3 weeks for four cycles as induction, followed by nivolumab 3 mg/kg every 2 weeks; or nivolumab 3 mg/kg+ipilimumab 1 mg/kg, every 3 weeks for four cycles as induction, followed by nivolumab 3 mg/kg every 2 weeks.
Thus, a third combination cohort was initiated: nivolumab 1 mg/kg+ipilimumab 1 mg/kg every 3 weeks (“1+1”) for 4 cycles as induction, followed by nivolumab 3 mg/kg every 2 weeks as maintenance. This dosing regimen has been much better tolerated with only 13% of subjects experiencing treatment-related AEs leading to discontinuation. […] The ORR is 16%, and the DCR is 58%. The PFS rate at 24 weeks is 55% with a median PFS of 46.1 weeks. The OS rate at 12 months is 63%, and the median OS is not reached. Activity has been observed in patients with both PD-L1 positive (PD-L1+) and PD-L1 negative (PD-L1−) tumors. […]
Analyses based on archival specimens for subjects in CA209012 have shown that subjects with both PD-L1+(IHC greater than or equal to 5%) and PD-L1 tumors may benefit from treatment with nivolumab. […] However, the disease control rate (DCR, CR+PR+SD) was 54% for those with PD-L1+ tumors and 50% for those with PD-L1− tumors. […] Again there was less of a difference in the DCR between the 2 groups: 53% for those with PD-L1+ tumors and 51% for those with PD-L1− tumors. For subjects receiving nivolumab monotherapy, the PFS rate at 24 weeks was 40% and 45% for patients with PD-L1+ and PD-L1− tumors respectively; the median OS was 19.1 months in subjects with PD-L1+ tumors and not reached in subjects with PD-L1− tumors. For subjects receiving nivolumab plus ipilimumab, the median PFS was 21.7 weeks and 12.4 weeks in PD-L1+ and PD-L1− tumors respectively; the median OS was 21.5 months in subjects with PD-L1+ tumors and 19.4 months in subjects with PD-L1− tumors. […]

[6] = nivolumab pharmacokinetics, population pharmacokinetic (PPK) analysis; format: in vivo, human; settings: for Cavgss Geo. Mean / Cmaxss Geo. Mean / Cminss Geo. Mean: geometric mean (cv %)
Description: Nivolumab monotherapy has been studied in NSCLC patient population in studies CA209003, CA209063, CA209017, and CA209057 with body weight normalized dosing (mg/kg). Nivolumab pharmacokinetics (PK) and exposures of subjects in these studies have been characterized by population pharmacokinetic (PPK) analysis of data collected these studies, together with PK data from several phase 1, 2, and 3 clinical studies of nivolumab monotherapy in solid tumors. Nivolumab PK was determined to be linear, with dose proportional exposures over a dose range of 0.1 to 10 mg/kg. […] Conversely, given the relationship between nivolumab PK and body weight, a flat dose is expected to lead to lower exposures in heavier patients, relative to the exposures in lighter patients.
Table 3 presents summary statistics of the estimated nivolumab steady-state trough, peak and time-averaged concentration (Cminss, Cmaxss, and Cavgss, respectively) in NSCLC subjects receiving 3 mg/kg, together with corresponding statistics of exposures predicted for a flat nivolumab dose of 240 mg. It should be noted that a dose of 240 mg nivolumab is identical to a dose of 3 mg/kg for subjects weighing 80 kg, which is the approximate median body weight of NSCLC subjects in the 3 phase 2 and 3 clinical studies of nivolumab monotherapy in NSCLC patients (CA209017, CA209057, and CA209063).

[7] = test system: second line or later NSCLC; settings: 3 mg/kg dose, cited from earlier work
[8] = test system: metastatic squamous cell NSCLC; settings: CA209063, 117 patients; cited from earlier work
[9] = test system: CMV specific memory T cells; assay: CMV re-stimulation assay with human PBMC; format: cell-based; settings: dose-dependent, versus isotype-matched control
Text: (Topalian S L et al. N Eng J Med 2012; 366: 2443-54.)

[10] = target: PD-1 (Homo sapiens, UniProt Q15116); design: endogenous in cells; settings: across all doses 0.3 mg/kg to 10 mg/kg, 15 subjects; cited from earlier work
PD-1, sequence (Q15116 25-288): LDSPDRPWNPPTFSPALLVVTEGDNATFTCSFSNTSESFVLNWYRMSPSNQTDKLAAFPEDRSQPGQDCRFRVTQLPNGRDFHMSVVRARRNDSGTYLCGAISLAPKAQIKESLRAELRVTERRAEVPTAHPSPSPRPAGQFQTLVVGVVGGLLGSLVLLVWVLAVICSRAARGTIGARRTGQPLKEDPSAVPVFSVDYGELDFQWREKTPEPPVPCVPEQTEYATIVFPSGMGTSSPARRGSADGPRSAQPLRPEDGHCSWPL

[11] = nivolumab monotherapy tolerability across clinical studies; format: in vivo
[12] = monotherapy 3 mg/kg every 2 weeks, n=52
[13] = dose 3 (mg/kg), NSCLC subjects, estimated

Molecule: Nc1nc2[nH]cc(CCc3ccc(C(=O)N[C@@H](CCC(=O)O)C(=O)O)cc3)c2c(=O)[nH]1 [pemetrexed]
- median OS with maintenance therapy [1]: ~13.9 month

Molecule: CC(=O)O[C@@]12CO[C@@H]1C[C@H](O)[C@@]1(C)C(=O)[C@H](O)C3=C(C)[C@@H](OC(=O)[C@H](O)[C@@H](NC(=O)OC(C)(C)C)c4ccccc4)C[C@@](O)([C@@H](OC(=O)c4ccccc4)[C@H]21)C3(C)C [docetaxel, reference compound]
- historical ORR ([1]; second-line): 8-10%
- historical median PFS ([1]; second-line): approximately 3 months
- median overall survival (OS) ([2]; CA209017): 6 months
- patients with a Grade 3-5 treatment-related event ([2]; CA209017): Fifty-seven
- treatment-related deaths (grade 5 event) ([2]; CA209017): 3

Molecule: ipilimumab: fully human, IgG1 monoclonal antibody that blocks the binding of CTLA-4 to its B7 ligands
- drug related hypersensitivity events (Grade 1-2) ([3]; 0.3 mg/kg group): 1.4%
- drug-related hypersensitivity events ([3]; 3 mg/kg group): no drug-related hypersensitivity events
- drug related hypersensitivity events (Grade 1-2) ([3]; 10 mg/kg group): 2.8%
- Grade 3-4 drug-related hypersensitivity events ([3]; across the 3 treatment groups): no Grade 3-4 drug-related hypersensitivity events

Molecule: paclitaxel/carboplatin
- arthralgia, Grade 3/4 ([1]; human, in vivo): 6%
- fatigue, Grade 3/4 ([1]; human, in vivo): 5%
- febrile neutropenia, Grade 3/4 ([1]; human, in vivo): 3%
- neuropathy, Grade 2/3 ([1]; human, in vivo): 18%

Molecule: gemcitabine/cisplatin
- alopecia, all grades ([1]; human, in vivo): 21%
- fatigue, Grade 3/4 ([1]; human, in vivo): 5%
- febrile neutropenia, Grade 3/4 ([1]; human, in vivo): 4%
- rate of Grade 3/4 anemia ([1]; human, in vivo): 10%
- rate of Grade 3/4 neutropenia ([1]; human, in vivo): 27%
- rate of Grade 3/4 thrombocytopenia ([1]; human, in vivo): 13%
- vomiting, Grade 3/4 ([1]; human, in vivo): 6%

Molecule: nivolumab
- objective response rates [4]: ~25%
- progression-free survival (PFS) rate at 24 weeks [4]: ~45%
- PFS rate at 24 weeks ([5]; PD-L1+ tumors): 40%
- disease control rate (DCR, CR+PR+SD) ([5]; PD-L1+ tumors): 54%
- median OS ([5]; PD-L1+ tumors): 19.1 months
- overall response rate (ORR) ([5]; PD-L1+ tumors (IHC >= 5%)): 31%
- PFS rate at 24 weeks ([5]; PD-L1− tumors): 45%
- disease control rate (DCR, CR+PR+SD) ([5]; PD-L1− tumors): 50%
- median OS ([5]; PD-L1− tumors): not reached
- overall response rate (ORR) ([5]; PD-L1− tumors): 15%
- OS rate at 12 months [5, 12]: 74%
- PFS rate at 24 weeks [5, 12]: 41%
- disease control rate (DCR) [5, 12]: 50%
- median PFS [5, 12]: 16 weeks
- median overall survival (OS) [5, 12]: 22.6 months
- overall response rate (ORR) [5, 12]: 23%
- coefficient of variation (cv %) of exposure greater than that of 3 mg/kg dosing ([6]; 240 mg flat vs 3 mg/kg): < 10%
- geometric mean Cminss, Cmaxss and Cavgss with flat dosing higher than with 3 mg/kg ([6]; 240 mg flat vs 3 mg/kg): < 15%
- PK in global and Japanese subjects ([6]; comparison of PK parameters): similar
- Cavgss Geo. Mean [6, 13]: 73.3 (35.6)
- Cmaxss Geo. Mean [6, 13]: 118.9 (31.8)
- Cminss Geo. Mean [6, 13]: 54.7 (41.9)
- PK linearity ([6]; dose range of 0.1 to 10 mg/kg, dose proportional exposures): linear
- Cavgss Geo. Mean ([6]; flat dose 240 (mg), predicted): 82.4 (38.2)
- Cmaxss Geo. Mean ([6]; flat dose 240 (mg), predicted): 133.7 (35.0)
- Cminss Geo. Mean ([6]; flat dose 240 (mg), predicted): 61.5 (44.6)
- half-life ([6]; in vivo): up to 25 days
- 24-week PFS rate ([7]; non-squamous): 42%
- objective response rate (ORR) ([7]; non-squamous): 26%
- 24-week PFS rate ([7]; squamous): 45%
- objective response rate (ORR) ([7]; squamous): 22%
- overall response rate (ORR) [8]: 15%
- IFN-7 secretion from CMV specific memory T cells [9]: augmented IFN-7 secretion
- mean PD-1 occupancy rate [10]: 85%
- mean plateau occupancy [10]: 72%
- HR for overall survival vs docetaxel ([2]; CA209017): 0.59
- median overall survival (OS) ([2]; CA209017): 9.6 months
- treatment-related deaths (grade 5 event) ([2]; CA209017): none
- patients with a Grade 3-5 treatment-related event ([2]; in vivo): 6.9%
- safety and tolerability ([11]; Japanese subjects): safe and well tolerated
- dose achieved without reaching the maximum tolerated dose (MTD) ([11]; monotherapy, every two weeks): > 10 mg/kg
- safety and tolerability ([11]; up to a dose level of 10 mg/kg): safe and well tolerated

Molecule: bevacizumab: monoclonal antibody that blocks vascular endothelial growth factor A (VEGF-A)
- median OS with maintenance therapy [1]: ~13.9 month
